pIC50: −log10 of the molar value. Converted amounts (≈) assume the structure as drawn.
Key:
[1] = system: Vero (African green monkey kidney) cells; assay: 50% toxicity concentration in the anti-herpes virus screen (Vero cells); settings: 50% toxity concentration, Table 3-1 (herpes virus screen, Vero cells)
hepatitis B virus (HBV) [2] = assay: HBsAg secretion in HepG2.2.15 culture supernatant (ELISA); assay type: cell-based; settings: HepG2.2.15 supernatant, eighth day, read-out: HBsAg secreation IC50
Excerpt: (§1) Hepatitis B virus (HBV) transgenic human hepatoma carcinoma cell, HepG2.2.15 cell line, can secrete hepatitis B virus particles (containing antigen and DNA) into supernatant when being cultured.
(§2) Under action of antiviral drugs, the contents of HBsAg, HBeAg and viral DNA secreted from cells into the supernatant were detected and are compared with the contents of control groups without drugs, so that the antiviral activity of the compounds of the present invention can be measured as well as the cytotoxic effect of compounds of the present invention. The value concentration of the compounds of the present invention which caused 50% of cells dead and was measured with MTT method was CC50; and the value concentration of the compounds of the present invention which inhibited the secretion of HBsAg and HBeAg detected by ELISA method and inhibited 50% of viral DNA replication detected by fluorescent quantification PCR method was IC50.
(§3) HepG2.2.15 cells were inoculated on a 96-well plate, and the compounds of the present invention were added next day. The medium and the compound solutions of the same concentration were renewed periodically. The culture supernatants were collected on the eighth day to be detected. MTT was added to the cells on the 96-well plate, and MTT dissolving liquid was added after 4 hours to be reacted overnight. OD570 was measured next day on microplate reader. And the cytotoxicity of the compounds of the present invention to the HepG2.2.15 cells, the effect of the compounds of the present invention on the growth of the cells, and the concentration of the compound of the present invention (CC50) causing 50% of the cells dead were estimated according to the OD values.
(§4) HBsAg and HBeAg were detected with assaying kits (purchased from Sino-American biotechnological company). Samples were added to the coated strip plate, and the same amount of enzyme labeled conjugate was added, after reacting under 37° C. for 1 hour, the plate was washed 5 times. Colorant solutions A and B were added, and the reaction was stopped after 15 minutes, and OD450/630 was measured. The half inhibition rate IC50 of the sample for the HBV antigen was calculated according to the OD values.

hepatitis B virus (HBV) [3] = assay: HBeAg secretion in HepG2.2.15 culture supernatant (ELISA); assay type: cell-based; settings: HepG2.2.15 supernatant, eighth day, read-out: HBeAg secreation IC50
Excerpt: as §1, §2, §3, §4

hepatitis B virus (HBV) [4] = assay: HBV-DNA replication in HepG2.2.15 culture supernatant (fluorescent quantification PCR); assay type: cell-based; settings: for pIC50: Hepatitis B virus, HepG2.2.15 supernatant, eighth day, fluorescent quantification PCR, read-out: DNA replication IC50
Excerpt: as §1, §2, §3
A suitable amount of culture supernatant was added into a same volume of virus extract solution, and was boiled after mixed uniformly, then centrifuged at 10000 rpm for 5 min under room temperature. A suitable amount of supernatant was collected for PCR amplification. Five HBV-DNA standard samples were used to set a standard curve. According to the obtained viral DNA replication value, the inhibition rates of HBV-DNA replication of the compound of the present invention at different concentrations were calculated, and then the half inhibition rates of the compounds were calculated to obtain IC50. For the samples that can not be calculated for IC50 value, they can be represented by ICX and given the corresponding concentration values.

[5] = Cytotoxicity to HepG2.2.15 cells (MTT method); assay type: cell-based; settings: human, HepG2.2.15 cells (HBV-transgenic human hepatoma cells), 50% death concentration, eighth day
Excerpt: as §1, §2, §3

[6] = system: MDCK (canine kidney) cells; assay: 50% toxicity concentration in the anti-influenza screen (MDCK cells); assay type: cell-based; settings: 50% toxity concentration, Table 3-2 (influenza screen, MDCK cells)
Excerpt: (§5) 4. Screening of the samples for the anti-influenza virus A and B activity: MDCK (canine kidney) cells were used as the virus host to test the inhibition effect of the compounds of the present invention on the cytopathic effect (CPE) of the cells caused by the virus.

influenza A virus = assay: Anti influenza A virus activity, cytopathic effect (CPE) in MDCK cells; assay type: cell-based
Excerpt: as §5

herpes virus I (HSV-I) = assay: Anti herpes virus I activity, cytopathic effect in Vero cells; assay type: cell-based; settings: Human alphaherpesvirus 1; Vero cells, cytopathic effect; read-out: Anti herpes virus I HSV-I (IC50)
Excerpt: (§6) 3. Screening of the compounds for the anti-herpes virus I and II activity: Vero (African green monkey kidney) cells were used as virus host to test the inhibition effect of the compounds of the present invention on the cytopathic effect of the Vero cells caused by Herpes virus I and II.

herpes virus II (HSV-II) = assay: Anti herpes virus II activity, cytopathic effect in Vero cells; assay type: cell-based; settings: Human alphaherpesvirus 2; Vero cells, cytopathic effect; read-out: Anti herpes virus II HSV-II (IC50)
Excerpt: as §6

HIV-1 integrase = biological target: T1, HIV-1 integrase (Human immunodeficiency virus type 1 group M subtype B, UniProt P04585); assay: HIV-1 integrase inhibition (ELISA, chain transfer); assay type: biochemical; settings: enzyme inhibition
T1 construct: purified HIV-1 integrase
Method: 2. Screening of the compounds for the anti HIV-1 integrase activity: the synthesized 30 oligonucleotide (5′P-[…]-3′,3′-[…]-5′) was used as donor substrate, and the synthesized 20 oligonucleoside (5′-[…]-3′-biotin, biotin-3′-[…]-5′) was used as target substrate. On a 96-well plate, the donor substrate was added with purified HIV-1 integrase to conduct ELISA reaction. The product of chain transfer of target DNA was detected and stained in the biotin labeled alkaline phosphatase system, OD values were measured with microplate reader. Addition of the compounds of the present invention in the reaction system can be used to screen the inhibitor of the enzyme.

HIV-1 protease = HIV-1 protease (Human immunodeficiency virus type 1 group M subtype B, UniProt P04585); assay: HIV-1 protease inhibition; assay type: biochemical

| SMILES | pIC50 (hepatitis B virus (HBV) [2]) | pIC50 (hepatitis B virus (HBV) [3]) | CC50 [5] [µM] | also measured |
| --- | --- | --- | --- | --- |
| Nc1nc2c(ncn2COCCO)c(=O)[nH]1 [ACV (acyclovir), acyclovir, reference compound] |  |  |  | TC50 [1]: >1000 µg/mL |
| CCCCc1sc(-c2nccs2)nc1C(=O)O [Wang268] | 4.43 | 3.89 |  | DNA replication IC53 (hepatitis B virus (HBV) [4]; ICX: concentration with 53% inhibition of HBV-DNA replication, IC50 not calculable): IC53 = 125 uM |
| CCCc1[nH]c(-c2cccs2)nc1C(=O)OCC [Wang264] | 4.38 | 4.02 | 124 |  |
| COC(=O)c1nc(-c2csc([C@@H](NC(=O)c3ccccc3F)C(C)C)n2)oc1C [Wang417.46-J] | 3.84 |  | 755 | TC50 [6]: >1000 µg/mL; IC50 (influenza A virus): > 86.2 µg/mL |
| CCOC(=O)c1nc(-c2cccs2)[nH]c1CC(C)C [Wang278-1] | 4.47 | 4.72 | 90.3 | DNA replication IC88 (hepatitis B virus (HBV) [4]; ICX: concentration with 88% inhibition of HBV-DNA replication, IC50 not calculable): IC88 = 1.37 uM |
| COC(=O)c1nc(-c2csc([C@@H](NC(=O)C3CC3)C(C)C)n2)oc1C [Wang363.43-1] |  |  |  | IC50 (herpes virus I (HSV-I)): 369 µg/mL (≈ 1020 µM); TC50 [6]: 500 µg/mL (≈ 1380 µM); IC50 (influenza A virus): 3.97 µg/mL (≈ 10.9 µM); TC50 [1]: 707.11 µg/mL (≈ 1950 µM) |
| CC(C)Cc1sc(-c2nccs2)nc1C(=O)O [Wang268-1] | 4.05 | 4.00 | 437 | pIC50 (hepatitis B virus (HBV) [4]): 3.82 |
| COC(=O)c1nc(-c2nccs2)sc1CC(C)C [Wang282-1] | 4.17 | 4.66 |  | pIC50 (hepatitis B virus (HBV) [4]): 5.62 |
| CCCCc1sc(-c2nccs2)nc1C(=O)OC [Wang282] | 4.23 | 4.24 | 397 | pIC50 (hepatitis B virus (HBV) [4]): 4.71 |
| COC(=O)c1coc([C@H](C)NC(=O)c2nc(-c3csc([C@@H](NC(=O)C4CCCC4)C(C)C)n3)oc2C)n1 [Wang529.61-1] | 3.67 | 3.77 | 472 | IC50 (herpes virus II (HSV-II)): 107 µg/mL (≈ 201 µM); TC50 [6]: 191.74 µg/mL (≈ 362 µM); IC50 (influenza A virus): 3.15 µg/mL (≈ 5.95 µM); TC50 [1]: 198.43 µg/mL (≈ 375 µM) |
| CCOC(=O)c1nc(-c2cccs2)[nH]c1-c1ccccc1 [Wang298] | 3.84 | 3.68 | 569 |  |
| COC(=O)c1nc(-c2csc([C@@H](NC(=O)c3ccccc3)C(C)C)n2)oc1C [Wang 399.46] |  |  |  | TC50 [6]: 166.67 µg/mL (≈ 417 µM); IC50 (influenza A virus): 1.14 µg/mL (≈ 2.85 µM); pIC50 (HIV-1 integrase): 3.44 |
| Clc1nc(-c2nccs2)[nH]c1-c1ccccc1 [Wang261] | 4.03 | 4.43 | 123 |  |
| CCCc1[nH]c(-c2nccs2)nc1C(=O)OCC [Wang265] | 3.88 | 4.41 | 548 | DNA replication IC44 (hepatitis B virus (HBV) [4]; ICX: concentration with 44% inhibition of HBV-DNA replication, IC50 not calculable): IC44 = 4.1 uM |
| Clc1nc(-c2cccs2)[nH]c1-c1ccccc1 [Wang260] | 4.15 | 3.89 | 270 | DNA replication IC85 (hepatitis B virus (HBV) [4]; ICX: concentration with 85% inhibition of HBV-DNA replication, IC50 not calculable): IC85 = 37 uM |
| COC(=O)c1nc(-c2csc([C@@H](NC(=O)c3csc([C@@H](NC(=O)OC(C)(C)C)C(C)C)n3)C(C)C)n2)oc1C [Wang 577.72] |  |  |  | IC50 (herpes virus II (HSV-II)): 97.6 µg/mL (≈ 169 µM); pIC50 (HIV-1 protease): 4.24; TC50 [1]: 176.78 µg/mL (≈ 306 µM) |
